Data on 13 molecules can be found in patent US20140024596A1, “DISEASE INHIBITING AGENT” (NITTA GELATIN INC., priority 2010, published 2014).

Each structure is given as a SMILES string. Non-standard residues stand in square brackets, D forms with d. Residues, ends and D or L forms follow the SMILES beside them. Hyp = O=C(O)[C@@H]1C[C@@H](O)CN1

One data set is described as follows: in vivo. As to conditions: male, Wistar, rat, po, 215 nmol/10 mL. The protocol:
Male Wistar rats (170 g) were fasted overnight before subjected to the experiment.
As a test method, heart and portal vein of each rat were attached with a cannula to make one-directional perfusion.
To a perfusion sample solution (5.0 mL) collected from the portal vein was added 0.5 mL of 30% sulfosalicylic acid and stirred vigorously, and left overnight in a refrigerator. This sample was centrifuged at 3000 rpm for 10 minutes, to remove protein. For the supernatant of centrifugation, an amount of hydroxyproline in 0.5 mL was colorimetrically quantified, and an amount of free-type Hyp was obtained.
Further, 3.0 mL of the supernatant of centrifugation was weighed into a screw-top test tube, and thereto an equivalent amount of concentrated hydrochloric acid was added, and hydrolyzed at 110° C. for 24 hours. After concentrating and drying the resultant in an evaporator, and removing the hydrochloric acid, the solid was dissolved in 5 mL of distilled water, and several drops of a saturated lithium hydroxide solution was added thereto to adjust pH at 5 to 7, and the volume was fixed at 10 mL. For 2 mL of this solution, an amount of hydroxyproline was colorimetrically quantified to obtain a total Hyp amount. The value obtained by subtracting the amount of free-type Hyp before hydrolysis from the total Hyp amount after hydrolysis is an amount of peptide-form Hyp. From this amount of peptide-form Hyp, a quantitative value of absorption of each peptide molecule into rat portal vein perfusate in the test sample was first determined.
In the above description, the colorimetric quantification of the amount of hydroxyproline was conducted by the Firschein and Shill method described concretely in Evaluation test 4.
Also, identification and quantification of OG, PO, Ala-Hyp, and Ser-Hyp were conducted by HPLC analysis and mass spectrometry (LC/MS/MS) as will be described later.
Analysis of the peptide molecules in the perfusate was conducted by reverse-phase HPLC analysis. As a HPLC device, an LCSS-905 system manufactured by JASCO Corporation, consisting of a liquid feeding pump, a degasser, an automatic sampler, a column open, a UV spectrophotometer, a printer, and a system controller was used. As a reverse-phase column, Nova Pak C18 (3.9×150 mm) was used.
A linear gradient mobile phase of a 0.1% TFA-containing acetonitrile-water system was used, and the injection amount of the sample was 70 μL and the flow rate was 1 mL/min.
As a HPLC device, U980HPLC (manufactured by JASCO Corporation) attached with an ODS(C18) column (Mightysil RP-18, 2×250 mm, manufactured by Kanto Chemical Co Ltd) was used. As a mobile phase solvent, a 0.2% formic acid-containing acetonitrile-water system was used, and the concentration of acetonitrile was increased from 0% to 40% over 40 minutes by a linear gradient, and washed with 100% acetonitrile for 10 minutes. The sample injection amount was 10 μL, and the column temperature was 40° C.
MS analysis was conducted by a MS/MS system using a Quattro LC mass spectrophotometer (Micromass, Manchester, UK) according to a four-channel Multiple Reaction Monitoring method. To be more specific, the elute from HPLC was monitored by m/z being [M+H]^+ and by m/s of its fragment ion species. The monitoring was conducted by using [M+H]^+ m/z: 229.1>132.1 for PO, [M+H]^+ m/z: 219.1>132.1 for Ser-Hyp, [M+H]^+ m/z: 203.1>132.1 for Ala-Hyp, and [M+H]^+ m/z: 189.1>86.1 for OG.
The perfusate was treated with sulfosalicylic acid in a final concentration of 3%, to remove protein. The supernatant liquid was lyophilized and 10 mg of a dry powder was dissolved in distilled water, and subjected to a positive ion exchange resin column to obtain an ammonia elution fraction. After removing the solvent, the fraction was dissolved in distilled water and subjected to LC/MS/MS analysis.

Data set [1] concerns osteoclast (mouse primary bone marrow cell culture). As to the kind of experiment: Evaluation Test 1: osteoclast differentiation culture on plastic dish (TRAP-positive multinucleated giant cells). The data set is classed as cell-based. Conditions: final concentration 625 μM, 6 days culture, control (blank) = 100, n = 6. As to the method:
Evaluation was made in conformance with an osteoclast differentiation culture method by Kobayashi Y. et al. [J. Bone Miner. Metab. (2004) 22: p. 318-328]. […] As a control, TRAP inhibiting activity when no peptide was added (blank) was also examined.

Data set [2] concerns osteoclast (precursor cells of osteoclasts and bone marrow stromal cells on ivory piece). As to the kind of experiment: Evaluation Test 1: Pit assay, osteoclast cultured on ivory piece. The data set is classed as cell-based, mouse. As to conditions: control (blank) = 100, n = 6; for Relative number of TRAP-positive multinucleated giant cells (osteoclasts) by cultivation on ivory piece (%): cultured about 1 week on ivory piece; for Relative number of Pit (%): resorption cavities on ivory piece, about 1 week. As to the method: Further, the inhibition degree of differentiation and activation of osteoclast by each of the peptide molecules, and amino acids was evaluated by the following Pit assay. In brief, the Pi assay in which osteoclast is cultured on an ivory piece was conducted in conformance with Kakudo S, et al J. Bone Miner. Metab. (1996) 14: 129-136. The concrete procedure is as follows. […] Then, after removing the cells from the ivory piece with a silicone rubber policeman, the ivory piece was stained with an acid hematoxylin solution for several minutes. At this time, the number of TRAP staining positive multinucleated giant cells (osteoclast) was counted by TRAP staining, and a relative number with respect to the number of cells in control (blank) was calculated. Then, the Pit number (number of resorption cavity) by osteoclast was counted under a microscope, and the degree of inhibiting osteoclast by each peptide to be tested was indicated by a relative ratio to blank (control).

`O=C(O)CNC(=O)[C@@H]1C[C@@H](O)CN1C(=O)[C@@H]1CCCN1C(=O)CNC(=O)[C@@H]1C[C@@H](O)CN1C(=O)[C@@H]1CCCN1` [(POG)2, (Pro-Hyp-Gly)2] (H-P[Hyp]GP[Hyp]G-OH; N-terminus and C-terminus assumed): the level at time molar in “in vivo” was determined as 1100 nM.

In “in vivo”, `O=C(O)CNC(=O)[C@@H]1C[C@@H](O)CN1C(=O)[C@@H]1CCCN1C(=O)CNC(=O)[C@@H]1C[C@@H](O)CN1C(=O)[C@@H]1CCCN1C(=O)CNC(=O)[C@@H]1C[C@@H](O)CN1C(=O)[C@@H]1CCCN1` [(POG)3, (Pro-Hyp-Gly)3] (H-P[Hyp]GP[Hyp]GP[Hyp]G-OH) came in with a level at time molar of 900 nM.

For `O=C(O)CNC(=O)[C@@H]1C[C@@H](O)CN1C(=O)[C@@H]1CCCN1C(=O)CNC(=O)[C@@H]1C[C@@H](O)CN1C(=O)[C@@H]1CCCN1C(=O)CNC(=O)[C@@H]1C[C@@H](O)CN1C(=O)[C@@H]1CCCN1C(=O)CNC(=O)[C@@H]1C[C@@H](O)CN1C(=O)[C@@H]1CCCN1` [(POG)4, (Pro-Hyp-Gly)4] (H-P[Hyp]GP[Hyp]GP[Hyp]GP[Hyp]G-OH), in the data set “in vivo”, the level at time molar came to 800 nM.

The molecule `C[C@H](N)C(=O)N1C[C@H](O)C[C@H]1C(=O)O` [Ala-Hyp] (H-Ala-[Hyp]-OH) had a level at time molar in “in vivo” of 1200 nM.

Regarding `CC(C)C[C@H](NC(=O)[C@H](Cc1c[nH]cn1)NC(=O)CNC(=O)[C@H](CC(=O)O)NC(=O)CNC(=O)[C@@H](N)CCC(=O)O)C(=O)NCC(=O)N[C@@H](CCCCN)C(=O)N1CCC[C@H]1C(=O)NCC(=O)N[C@@H](CCCNC(=N)N)C(=O)N1C[C@H](O)C[C@H]1C(=O)NCC(=O)N[C@@H](CCC(=O)O)C(=O)O` [EGDGHLGKPGROGE] (H-EGDGHLGKPGR[Hyp]GE-OH), the level at time molar in the data set “in vivo” worked out at 100 nM.

As to `N=C(N)NCCC[C@H](NC(=O)CNC(=O)[C@@H]1CCCN1C(=O)[C@H](CCCCN)NC(=O)CNC(=O)[C@@H]1CCCN1C(=O)[C@H](Cc1c[nH]cn1)NC(=O)CNC(=O)[C@H](CC(=O)O)NC(=O)[C@H](CCCCN)NC(=O)[C@@H](N)CCC(=O)O)C(=O)N1C[C@H](O)C[C@H]1C(=O)NCC(=O)N[C@@H](CCC(=O)O)C(=O)O` [EKDGHPGKPGROGE] (H-EKDGHPGKPGR[Hyp]GE-OH), in “in vivo”, the level at time molar is 100 nM.

Regarding `NCC(=O)N1CCC[C@H]1C(=O)N1C[C@H](O)C[C@H]1C(=O)NCC(=O)N1CCC[C@H]1C(=O)N1C[C@H](O)C[C@H]1C(=O)NCC(=O)O` [G(POG)2, Gly-(Pro-Hyp-Gly)2] (H-GP[Hyp]GP[Hyp]G-OH; N-terminus and C-terminus assumed), in “in vivo”, the level at time molar was 100 nM.

Regarding `NCC(=O)N1CCC[C@H]1C(=O)N1C[C@H](O)C[C@H]1C(=O)NCC(=O)N1CCC[C@H]1C(=O)N1C[C@H](O)C[C@H]1C(=O)NCC(=O)N1CCC[C@H]1C(=O)N1C[C@H](O)C[C@H]1C(=O)NCC(=O)O` [G(POG)3, Gly-(Pro-Hyp-Gly)3] (H-GP[Hyp]GP[Hyp]GP[Hyp]G-OH), the level at time molar in the data set “in vivo” is 80 nM.

`O=C(O)[C@@H]1C[C@@H](O)CN1` [Hyp, hydroxyproline]: in data set [1], the “Relative area of TRAP-positive multinucleated giant cells (osteoclasts) by cultivation on plastic dish (%)” value turned out to be 117 ± 13 % and the “Relative number of TRAP-positive multinucleated giant cells (osteoclasts) by cultivation on plastic dish (%)” value was found to be 126 ± 4 %. Moreover, in data set [2], the “Relative number of TRAP-positive multinucleated giant cells (osteoclasts) by cultivation on ivory piece (%)” value stood at 141 ± 9 % and the “Relative number of Pit (%)” value stood at 131 ± 11 %.

Take `O=C(O)CNC(=O)[C@@H]1C[C@@H](O)CN1` [OG, Hyp-Gly] (H-[Hyp]-Gly-OH): the level at time molar in the data set “in vivo” turned out to be 9800 nM.

Regarding `O=C(O)[C@@H]1C[C@@H](O)CN1C(=O)[C@@H]1CCCN1` [PO, Pro-Hyp] (H-Pro-[Hyp]-OH), in “in vivo”, the level at time molar was found to be 21300 nM.

Consider `O=C(O)[C@@H]1CCCN1` [Pro, proline], for which, in data set [1], the “Relative area of TRAP-positive multinucleated giant cells (osteoclasts) by cultivation on plastic dish (%)” value amounted to 125 ± 69% and the “Relative number of TRAP-positive multinucleated giant cells (osteoclasts) by cultivation on plastic dish (%)” value is on record as 119 ± 44%. For the same molecule, in data set [2], the “Relative number of TRAP-positive multinucleated giant cells (osteoclasts) by cultivation on ivory piece (%)” value turned out to be 119 ± 20% and the “Relative number of Pit (%)” value amounted to 121 ± 23%.

Molecule `N[C@@H](CO)C(=O)N1C[C@H](O)C[C@H]1C(=O)O` [Ser-Hyp] (H-Ser-[Hyp]-OH) yielded a level at time molar in “in vivo” of 700 nM.
